# Key:
# [1] = molecular target: T1, α2-adrenergic receptor ([3H] clonidine binding site in calf cerebral cortex) (Bos taurus, UniProt Q28838); experiment: α2-adrenergic receptor binding ([3H] clonidine binding site)
# T1 construct: from tissue; host or cells: calf cerebral cortex
# T1 sequence (Q28838 1-468): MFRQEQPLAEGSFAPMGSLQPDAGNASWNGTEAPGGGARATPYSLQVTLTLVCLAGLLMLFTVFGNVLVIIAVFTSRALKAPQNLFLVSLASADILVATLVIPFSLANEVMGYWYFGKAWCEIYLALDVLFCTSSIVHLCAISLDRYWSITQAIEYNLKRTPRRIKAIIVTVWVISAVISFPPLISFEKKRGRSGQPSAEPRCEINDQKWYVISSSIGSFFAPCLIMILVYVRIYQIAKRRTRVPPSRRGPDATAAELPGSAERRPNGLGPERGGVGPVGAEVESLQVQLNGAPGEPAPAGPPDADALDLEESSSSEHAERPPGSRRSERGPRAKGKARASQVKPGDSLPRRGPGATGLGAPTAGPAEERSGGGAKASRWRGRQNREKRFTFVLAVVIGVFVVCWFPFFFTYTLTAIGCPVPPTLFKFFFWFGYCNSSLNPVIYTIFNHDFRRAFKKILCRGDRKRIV
# Experimental: Binding to the α2 -adrenergic receptor was determined by the method of Lyon and Randall, Life Sciences, 26, 1121 (1980) and also is expressed in Table I as Ki representing the affinity of each compound for the [^3 H] clonidine binding site in calf cerebral cortex.
# [2] = molecular target: α1-adrenergic receptor ([3H] prazosin binding site in calf cerebral cortex); experiment: α1-adrenergic receptor binding ([3H] prazosin binding site)
# Experimental: The α1 - and α2 -adrenergic receptor binding as determined for some of the active compounds of this invention are shown in Table I.
# Extent of binding to the α1 -adrenergic receptor was determined by the method of Greengrass and Bremner, Eur. J. Pharmacol., 55, 323 (1979) and is expressed in Table I as Ki, representing the affinity of each compound for the [^3 H] prazosin binding site in calf cerebral cortex.
# [3] = system: α-Methyldopa (α-MD) Depression of Rat Locomotor Activity; experiment: Antagonism of α-methyldopa (α-MD) depression of rat locomotor activity; type: in vivo, Female Sprague-Dawley rats; conditions: 20-minute period
# From the text: Female Sprague-Dawley rats (Sprague-Dawley, Madison, Wis.) weighing 55-90 g were used in these studies. The test apparatus consisted of 10 activity chambers in a closed metal cabinet separated into individual compartments measuring 43×43 cm with a solid partition between each chamber. Ventilation in the cabinet was provided by two high speed fans, and background noise was supplied with a Grason-Stadler Noise Generator. The activity chambers were constructed from clear plexiglass cylinders, 30 cm high by 30 cm in diameter. Two infrared photocells were mounted at a height of 3 cm above the floor, the receivers being at the same height and directly opposite. Interruption of either of the beams registered independently as an activity count. The accumulated locomotor activity counts were stored in a microprocessor-based acquisition system and printed out at a preprogrammed interval on an ASR-33 Teletype unit. The decrease in locomotor activity caused by α-MD is most readily demonstrable during the time immediately following introduction of the rats into the test apparatus. Therefore, activity counts were recorded for a 20-minute period, beginning with placement of the animals in the test chambers. Animals with the various treatments were systematically rotated through the chambers. […] Dunnett's test was used for comparison of several treatment groups with a control group and the least significant difference test for comparison of the means of any two treatment groups. A P value of 0.05 (two-sided) was considered as indicating significance.
# Animals were pretreated (3 hours, 4 minutes) with α-MD (200 or 400 mg/kg, p.o.), and various doses of 8-(1-piperazinyl)imidazo[1,2-a]pyrazine.2HCl.H2 O (0.11-3.0 mg/kg, sc) 40 minutes prior to testing. Vehicles used in control animals were 1% methylcellulose (in which α-MD was suspended) and saline (in which the experimental compound was dissolved).
# [4] = system: locomotor depressant effects of methyldopa in rats; conditions: Clineschmidt et al., 1980; cited from earlier work
# [5] = system: clonidine-induced sedation in man; conditions: Autret et al., 1977; cited from earlier work
# [6] = system: sedation produced by clonidine; conditions: Drew et al., 1979; cited from earlier work
smiles,measurement,setting,value
CN1CCN(c2nc(Cl)cn3ccnc23)CC1 [Compound 4],Ki,[1],121 nM
same,Ki,[2],380 nM
Clc1cnc2c(N3CCNCC3)nccn12 [Compound 2],Ki,[1],240 nM
same,Ki,[2],2800 nM
"Cl.Cl.O.c1cn2ccnc2c(N2CCNCC2)n1 [Compound, 8-(1-piperazinyl)imidazo[1,2-a]pyrazine dihydrochloride hydrate]",locomotor activity (square roots of activity counts),"[3]; experiment 1, compound 0.11 mg/kg s.c. 40 min, with α-MD 400 mg/kg p.o.",5.1 ± 0.5
same,locomotor activity (square roots of activity counts),"[3]; experiment 1, compound 0.33 mg/kg s.c. 40 min, with α-MD 400 mg/kg p.o.",8.4 ± 0.9
same,locomotor activity (square roots of activity counts),"[3]; experiment 1, compound 1.0 mg/kg s.c. 40 min, with α-MD 400 mg/kg p.o.",11.7 ± 1.3
same,locomotor activity (square roots of activity counts),"[3]; experiment 1, compound 3 mg/kg s.c. 40 min after α-MD 400 mg/kg p.o.",11.6 ± 1.3
same,locomotor activity (square roots of activity counts),"[3]; experiment 2, compound 0.11 mg/kg s.c. 40 min, with α-MD 200 mg/kg p.o.",8.4 ± 1.1
same,locomotor activity (square roots of activity counts),"[3]; experiment 2, compound 0.33 mg/kg s.c. 40 min, with α-MD 200 mg/kg p.o.",9.5 ± 1.2
same,locomotor activity (square roots of activity counts),"[3]; experiment 2, compound 1.0 mg/kg s.c. 40 min, with α-MD 200 mg/kg p.o.",11.4 ± 1.2
same,locomotor activity (square roots of activity counts),"[3]; experiment 2, compound 3.0 mg/kg s.c. 40 min, with α-MD 200 mg/kg p.o.",12.2 ± 1.2
COC(=O)[C@@H]1[C@H]2C[C@H]3c4[nH]c5ccccc5c4CCN3C[C@@H]2CC[C@@H]1O [yohimbine],effect on locomotor depressant effects of methyldopa,[4],antagonizes
same,effect on clonidine-induced sedation in man,[5],reduce clonidine-induced sedation in man
same,effect on sedation produced by clonidine,[6],antagonizes the sedation produced by clonidine
"C[C@](N)(Cc1ccc(O)c(O)c1)C(=O)O [α-MD, α-Methyldopa, reference compound]",locomotor activity (square roots of activity counts),"[3]; experiment 1, α-MD 400 mg/kg p.o. 3 hr + saline s.c.",4.7 ± 0.7
same,locomotor activity (square roots of activity counts),"[3]; experiment 2, α-MD 200 mg/kg p.o. 3 hr + saline s.c.",6.8 ± 0.5
Clc1cn2ccnc2c(N2CCNCC2)n1 [Compound 1],Ki,[1],73 nM
same,Ki,[2],250 nM
"c1cn2ccnc2c(N2CCNCC2)n1 [Compound 3, 8-(1-piperazinyl)imidazo[1,2-a]pyrazine]",Ki,[1],15 nM
same,Ki,[2],3100 nM

# Reference: US4376772A, “Use of piperazinyl-imidazo[1,2-a]pyrazines in sedation” (Merck & Co., Inc., priority 1981, dated 1983)
